{
  "source": "ChEMBL document CHEMBL4616720",
  "about": "(J Med Chem, 2020)",
  "key": {"[1]": {"experiment": "Clearance in Sprague-Dawley rat at 2 mg/kg, iv measured up to 24 hrs by LC-MS/MS analysis", "assay_type": "ADME, organism-based", "settings": "in vivo"}, "A549 [2]": {"system": "A549", "experiment": "Induction of apoptosis in human A549 cells assessed as early apoptotic cells at 40 uM measured after 48 hrs by Annexin V-FITC/propidium iodide staining based FACSClibur flow cytometry analysis (reference value: 0.40 %)", "assay_type": "functional"}, "[3]": {"experiment": "Toxicity in KM mouse assessed as behavioral changes at <262 mg/kg, ip administered as single dose measured daily for 14 days", "assay_type": "organism-based", "settings": "in vivo, 336 h"}, "[4]": {"experiment": "Selectivity index, ratio of IC50 for human MCF10A cells assessed as reduction in cell growth measured after 48 hrs by CCK8 assay to IC50 for human MCF7 cells assessed as reduction in cell growth measured after 48 hrs by CCK8", "assay_type": "toxicity", "settings": "MCF10A cells versus MCF7 cells, read-out: Ratio IC50"}, "[5]": {"experiment": "Toxicity in BALB/c nude mouse xenografted with human HCT116 cells assessed as body weight loss at 25 to 50 mg/kg, ip administered every 3 days for 21 days measured on day 7 relative to control", "assay_type": "organism-based, HCT-116", "settings": "in vivo"}, "HCT-116": {"system": "HCT-116", "experiment": "Antitumor activity against human HCT116 cells xenografted in ip dosed BALB/c nude mouse assessed as tumor growth inhibition administered every 3 days for 21 days and measured every second day for 21 days during compound dosing by digital caliper method", "assay_type": "functional, organism-based"}, "A549 [6]": {"system": "A549", "experiment": "Induction of apoptosis in human A549 cells assessed as late apoptotic cells at 40 uM measured after 24 hrs by Annexin V-FITC/propidium iodide staining based FACSClibur flow cytometry analysis (reference value: 2.32 %)", "assay_type": "functional"}, "A549 [7]": {"system": "A549", "experiment": "Induction of apoptosis in human A549 cells assessed as live cells at 40 uM measured after 24 hrs by Annexin V-FITC/propidium iodide staining based FACSClibur flow cytometry analysis (reference value: 97 %)", "assay_type": "functional"}, "[8]": {"experiment": "Toxicity in KM mouse assessed as clinical changes at <262 mg/kg, ip administered as single dose measured for 14 days", "assay_type": "organism-based", "settings": "in vivo, 336 h"}, "Histone deacetylase 1": {"target": "Histone deacetylase 1 (Homo sapiens, UniProt Q13547)", "sequence (Q13547 whole entry)": "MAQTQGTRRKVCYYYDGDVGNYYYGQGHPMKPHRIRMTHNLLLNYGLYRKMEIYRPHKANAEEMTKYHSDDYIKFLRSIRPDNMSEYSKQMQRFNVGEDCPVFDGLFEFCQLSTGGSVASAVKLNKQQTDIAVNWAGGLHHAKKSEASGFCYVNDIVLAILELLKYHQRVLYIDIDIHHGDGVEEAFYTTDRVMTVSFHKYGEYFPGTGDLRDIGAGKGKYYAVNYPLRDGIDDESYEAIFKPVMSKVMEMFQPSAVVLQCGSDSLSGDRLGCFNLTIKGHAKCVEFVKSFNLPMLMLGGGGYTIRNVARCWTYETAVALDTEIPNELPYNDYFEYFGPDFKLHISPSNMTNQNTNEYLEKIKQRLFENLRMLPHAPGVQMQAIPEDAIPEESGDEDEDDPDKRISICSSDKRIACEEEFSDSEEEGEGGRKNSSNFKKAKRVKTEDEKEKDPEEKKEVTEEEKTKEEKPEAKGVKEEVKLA", "experiment": "Inhibition of HDAC1 (unknown origin) using Boc-Lys(Ac)-pNA as substrate preincubated for 20 mins followed by substrate addition and further incubated for 90 mins by fluorescence assay"}, "A549 [9]": {"system": "A549", "experiment": "Induction of apoptosis in human A549 cells assessed as early apoptotic cells at 40 uM measured after 24 hrs by Annexin V-FITC/propidium iodide staining based FACSClibur flow cytometry analysis (reference value: 0.35 %)", "assay_type": "functional"}, "[10]": {"experiment": "Selectivity index, ratio of IC50 for human MCF10A cells assessed as reduction in cell growth measured after 48 hrs by CCK8 assay to IC50 for human HL60 cells assessed as reduction in cell growth measured after 48 hrs by CCK8", "assay_type": "toxicity", "settings": "MCF10A cells versus HL60 cells, read-out: Ratio IC50"}, "A549 [11]": {"system": "A549", "experiment": "Antiproliferative activity against human A549 cells assessed as reduction in cell growth measured after 48 hrs by CCK8 assay", "assay_type": "functional, cell-based", "settings": "A549, 48 h"}, "MCF7": {"system": "MCF7", "experiment": "Antiproliferative activity against human MCF7 cells assessed as reduction in cell growth measured after 48 hrs by CCK8 assay", "assay_type": "functional, cell-based", "settings": "MCF7, 48 h"}, "[12]": {"experiment": "Selectivity index, ratio of IC50 for human MCF10A cells assessed as reduction in cell growth measured after 48 hrs by CCK8 assay to IC50 for human A549 cells assessed as reduction in cell growth measured after 48 hrs by CCK8", "assay_type": "toxicity", "settings": "MCF10A cells versus A549 cells, read-out: Ratio IC50"}, "[13]": {"experiment": "Cmax in Sprague-Dawley rat at 20 mg/kg, po measured at 0.25 hrs by LC-MS/MS analysis", "assay_type": "ADME, organism-based", "design": "dose 20 mg/kg, route oral", "settings": "in vivo"}, "[14]": {"experiment": "Apparent volume of distribution at steady state in Sprague-Dawley rat at 2 mg/kg, iv measured up to 24 hrs by LC-MS/MS analysis", "assay_type": "ADME, organism-based", "settings": "in vivo, read-out: Vdss(app)"}, "A549 [15]": {"system": "A549", "experiment": "Induction of apoptosis in human A549 cells assessed as induction of caspase-3 activation at 40 uM using Ac-DEVD-pNA as substrate preincubated for 24 hrs followed by substrate addition and measured after 2 hrs by microplate reader assay", "assay_type": "functional, cell-based"}, "MCF-10A": {"system": "MCF-10A", "experiment": "Cytotoxicity against human MCF10A cells assessed as reduction in cell growth measured after 48 hrs by CCK8 assay", "assay_type": "cell-based"}, "SJSA-1": {"system": "SJSA-1", "experiment": "Antiproliferative activity against human SJSA1 cells assessed as reduction in cell growth measured after 48 hrs by CCK8 assay", "assay_type": "functional, cell-based", "settings": "SJSA-1, 48 h"}, "A549 [16]": {"system": "A549", "experiment": "Induction of apoptosis in human A549 cells assessed as necrotic cells at 40 uM measured after 24 hrs by Annexin V-FITC/propidium iodide staining based FACSClibur flow cytometry analysis (reference value: 0.37 %)", "assay_type": "functional"}, "A549 [17]": {"system": "A549", "experiment": "Induction of apoptosis in human A549 cells assessed as live cells at 40 uM measured after 48 hrs by Annexin V-FITC/propidium iodide staining based FACSClibur flow cytometry analysis (reference value: 95.5 %)", "assay_type": "functional"}, "[18]": {"experiment": "Selectivity index, ratio of IC50 for human MCF10A cells assessed as reduction in cell growth measured after 48 hrs by CCK8 assay to IC50 for human SJSA1 cells assessed as reduction in cell growth measured after 48 hrs by CCK8", "assay_type": "toxicity", "settings": "MCF10A cells versus SJSA1 cells, read-out: Ratio IC50"}, "[19]": {"target": "T1, Peptide deformylase, mitochondrial (Homo sapiens, UniProt Q9HBH1)", "T1 sequence (Q9HBH1 whole entry)": "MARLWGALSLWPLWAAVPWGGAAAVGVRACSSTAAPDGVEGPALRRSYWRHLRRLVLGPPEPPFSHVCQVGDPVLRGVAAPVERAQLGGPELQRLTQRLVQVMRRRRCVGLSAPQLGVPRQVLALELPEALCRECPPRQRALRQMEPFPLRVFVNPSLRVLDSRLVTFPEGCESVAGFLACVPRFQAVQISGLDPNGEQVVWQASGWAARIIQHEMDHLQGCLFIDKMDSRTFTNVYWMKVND", "experiment": "Inhibition of human PDF expressed in Escherichia coli BL21 pLysS using formyl-Met-Ala-His-Ala peptide as substrate measured after 1 hr by fluorescamine-based fluorescence assay"}, "HL-60": {"system": "HL-60", "experiment": "Antiproliferative activity against human HL60 cells assessed as reduction in cell growth measured after 48 hrs by CCK8 assay", "assay_type": "functional, cell-based", "settings": "HL-60, 48 h"}},
  "note": "Active and inactive are the calls of the source. The calls are words filed in the database; no cut-off is given here.",
  "data": [
    {"smiles": "O=C(C[C@@H](CC1CCCC1)C(=O)N1CC2(CC2)C[C@H]1c1nc(-c2ccc(F)cc2C(F)(F)F)no1)NO", "values": [
      {"measurement": "CL", "setting": "[1]", "value": 26.68, "unit": "L/kg/h"},
      {"measurement": "Activity", "setting": "A549 [2]", "value": 12.6, "unit": "%"},
      {"measurement": "Activity", "setting": "[3]", "value": "Non-Toxic"},
      {"measurement": "selectivity ratio at 48 h", "setting": "[4]", "value": 9},
      {"measurement": "Activity", "setting": "[5]", "value": 5, "unit": "%"},
      {"measurement": "TGI", "setting": "HCT-116", "value": "Dose-dependent effect"},
      {"measurement": "Activity", "setting": "A549 [6]", "value": 7.07, "unit": "%"},
      {"measurement": "Activity", "setting": "A549 [7]", "value": 87.8, "unit": "%"},
      {"measurement": "Activity", "setting": "[8]", "value": "Non-Toxic"},
      {"measurement": "IC50", "setting": "Histone deacetylase 1", "value": "> 10", "unit": "µM"},
      {"measurement": "Activity", "setting": "A549 [9]", "value": 4.03, "unit": "%"},
      {"measurement": "selectivity ratio at 48 h", "setting": "[10]", "value": 9},
      {"measurement": "IC50", "setting": "A549 [11]", "value": 2580, "unit": "nM"},
      {"measurement": "IC50", "setting": "MCF7", "value": 4.65, "unit": "µM"},
      {"measurement": "selectivity ratio at 48 h", "setting": "[12]", "value": 9},
      {"measurement": "Cmax", "setting": "[13]", "value": 617, "unit": "ng/mL"},
      {"measurement": "Vd", "setting": "[14]", "value": 5.26, "unit": "L/kg"},
      {"measurement": "Activity", "setting": "A549 [15]", "value": "inactive"},
      {"measurement": "IC50", "setting": "MCF-10A", "value": 18.1, "unit": "µM"},
      {"measurement": "IC50", "setting": "SJSA-1", "value": 1940, "unit": "nM"},
      {"measurement": "Activity", "setting": "A549 [16]", "value": 1.12, "unit": "%"},
      {"measurement": "Activity", "setting": "A549 [17]", "value": 80.9, "unit": "%"},
      {"measurement": "selectivity ratio at 48 h", "setting": "[18]", "value": 9},
      {"measurement": "IC50", "setting": "[19]", "value": 4.11, "unit": "nM"},
      {"measurement": "IC50", "setting": "HL-60", "value": 2020, "unit": "nM"}
    ]}
  ]
}
